For the assay, the target named is SHP2 (Homo sapiens (Human), UniProt Q06124). Briefly: SHP2 Allosteric Inhibition Assay (DiFMUP prompt fluorescence). The class given is biochemical. Particulars: 0.25 nM SHP2 activated with 0.5 μM peptide IRS1_pY1172(dPEG8)pY1222; substrate DiFMUP 100 μM; 25° C.

SMILES strings stand for the structures. A value given as a limit tells only on which side of the number the result lay.

Sequence of SHP2 (Q06124 whole entry): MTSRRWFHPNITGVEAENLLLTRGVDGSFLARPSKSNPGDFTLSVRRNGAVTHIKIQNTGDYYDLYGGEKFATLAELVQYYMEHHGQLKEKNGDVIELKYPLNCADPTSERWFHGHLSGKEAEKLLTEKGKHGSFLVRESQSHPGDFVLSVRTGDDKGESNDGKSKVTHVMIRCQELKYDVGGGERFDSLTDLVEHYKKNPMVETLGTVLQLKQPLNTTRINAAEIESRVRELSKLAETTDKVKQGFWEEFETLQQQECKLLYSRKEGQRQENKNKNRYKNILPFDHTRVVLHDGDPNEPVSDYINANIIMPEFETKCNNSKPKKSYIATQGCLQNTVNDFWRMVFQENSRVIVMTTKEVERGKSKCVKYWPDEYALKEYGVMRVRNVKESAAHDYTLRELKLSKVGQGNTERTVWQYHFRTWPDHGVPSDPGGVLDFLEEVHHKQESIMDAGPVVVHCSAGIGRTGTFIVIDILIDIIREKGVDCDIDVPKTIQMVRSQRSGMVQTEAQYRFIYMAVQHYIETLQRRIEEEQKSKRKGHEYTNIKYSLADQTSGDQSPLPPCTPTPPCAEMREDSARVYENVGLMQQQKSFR

Consider `CCc1nc(-c2ccc3c(n2)CCCN3c2n[nH]c3nc(N4CCC5(CC4)CO[C@@H](C)[C@H]5N)cnc23)no1` [Compound 320, (3S,4S)-8-{3-[6-(5-ethyl-1,2,4-oxadiazol-3-yl)-1,2,3,4-tetrahydro-1,5-naphthyridin-1-yl]-1H-pyrazolo[3,4-b]pyrazin-6-yl}-3-methyl-2-oxa-8-azaspiro[4.5]decan-4-amine; formic acid], for which the IC50 is under 1000 nM.

`CC(C)c1nc(-c2ccc3c(n2)CCCN3c2n[nH]c3nc(N4CCC5(CC4)CO[C@@H](C)[C@H]5N)cnc23)no1` [Compound 321, (3S,4S)-3-methyl-8-(3-{6-[5-(propan-2-yl)-1,2,4-oxadiazol-3-yl]-1,2,3,4-tetrahydro-1,5-naphthyridin-1-yl}-1H-pyrazolo[3,4-b]pyrazin-6-yl)-2-oxa-8-azaspiro[4.5]decan-4-amine; formic acid] registered an IC50 of under 1000 nM.

`C[C@@H]1OCC2(CCN(c3cnc4c(N5CC(=O)Nc6ncncc65)n[nH]c4n3)CC2)[C@@H]1N` [Compound 322]: the IC50 was 1000 to 10000 nM.

For the compound `CC(=O)N1CCN(c2n[nH]c3nc(N4CCC5(CC4)CO[C@@H](C)[C@H]5N)cnc23)c2ccc(-c3cnn(C)c3)cc21` [Compound 323], the IC50 was under 1000 nM.

`C[C@@H]1OCC2(CCN(c3cnc4c(N5CCOc6nc(-c7cnn(C)c7)ccc65)n[nH]c4n3)CC2)[C@@H]1N` [Compound 324] registered an IC50 of under 1000 nM.

As for `C[C@@H]1OCC2(CCN(c3cnc4c(N5CCN(S(C)(=O)=O)c6ccccc65)n[nH]c4n3)CC2)[C@@H]1N` [Compound 325], the half-maximal inhibitory concentration (IC50) is under 1000 nM.

`C[C@@H]1OCC2(CCN(c3cnc4c(N5CC[C@@H](C(F)F)c6cc(C#N)ccc65)n[nH]c4n3)CC2)[C@@H]1N` [Compound 326] displayed an IC50 of under 1000 nM.

As to `C[C@@H]1OCC2(CCN(c3cnc4c(N5CC[C@H](C(F)F)c6cc(C#N)ccc65)n[nH]c4n3)CC2)[C@@H]1N` [Compound 327], the IC50 was under 1000 nM.

Turning to `Cc1coc(-c2ccc3c(n2)CCCN3c2n[nH]c3nc(N4CCC5(CC4)CO[C@@H](C)[C@H]5N)cnc23)n1` [Compound 328], the 50% inhibitory concentration (IC50) was under 1000 nM.

The compound `CNC(=O)c1ccc2c(c1)NCCN2c1n[nH]c2nc(N3CCC4(CC3)CO[C@@H](C)[C@H]4N)cnc12` [Compound 329, 1-{6-[(3S,4S)-4-amino-3-methyl-2-oxa-8-azaspiro[4.5]decan-8-yl]-1H-pyrazolo[3,4-b]pyrazin-3-yl}-N-methyl-1,2,3,4-tetrahydroquinoxaline-6-carboxamide] showed an IC50 of under 1000 nM.

Compound `Cc1cccc2c1CCCN2c1n[nH]c2nc(N3CCC4(CC3)CO[C@@H](C)[C@H]4N)cnc12` [Compound 330] returned a 50% inhibitory concentration (IC50) of under 1000 nM.

Regarding `CNC(=O)N1CCN(c2n[nH]c3nc(N4CCC5(CC4)CO[C@@H](C)[C@H]5N)cnc23)c2cccnc21` [Compound 331, 1-{6-[(3S,4S)-4-amino-3-methyl-2-oxa-8-azaspiro[4.5]decan-8-yl]-1H-pyrazolo[3,4-b]pyrazin-3-yl}-N-methyl-1H,2H,3H,4H-pyrido[2,3-b]pyrazine-4-carboxamide], the IC50 was under 1000 nM.

In turn, `C[C@@H]1OCC2(CCN(c3cnc4c(N5CCNc6cc(-c7ccnnc7)ccc65)n[nH]c4n3)CC2)[C@@H]1N` [Compound 332] showed an IC50 of under 1000 nM.

The compound `COCCn1cc(-c2ccc3c(n2)CCCN3c2n[nH]c3nc(N4CCC5(CC4)CO[C@@H](C)[C@H]5N)cnc23)cn1` [Compound 333, (3S,4S)-8-(3-{6-[1-(2-methoxyethyl)-1H-pyrazol-4-yl]-1,2,3,4-tetrahydro-1,5-naphthyridin-1-yl}-1H-pyrazolo[3,4-b]pyrazin-6-yl)-3-methyl-2-oxa-8-azaspiro[4.5]decan-4-amine] came in with an IC50 of under 1000 nM.

Turning to `CCn1cc(-c2ccc3c(n2)CCCN3c2n[nH]c3nc(N4CCC5(CC4)CO[C@@H](C)[C@H]5N)cnc23)cn1` [Compound 334, (3S,4S)-8-{3-[6-(1-ethyl-1H-pyrazol-4-yl)-1,2,3,4-tetrahydro-1,5-naphthyridin-1-yl]-1H-pyrazolo[3,4-b]pyrazin-6-yl}-3-methyl-2-oxa-8-azaspiro[4.5]decan-4-amine], the IC50 is under 1000 nM.

Consider `C[C@@H]1OCC2(CCN(c3cnc4c(N5CCCc6c5ccnc6C(N)=O)n[nH]c4n3)CC2)[C@@H]1N` [Compound 335, 1-{6-[(3S,4S)-4-amino-3-methyl-2-oxa-8-azaspiro[4.5]decan-8-yl]-1H-pyrazolo[3,4-b]pyrazin-3-yl}-1,2,3,4-tetrahydro-1,6-naphthyridine-5-carboxamide], for which the IC50 is under 1000 nM.

The compound `C[C@@H]1OCC2(CCN(c3cnc4c(N5CCCc6nc(C7=CCOC7)ccc65)n[nH]c4n3)CC2)[C@@H]1N` [Compound 336] had an IC50 of under 1000 nM.

The compound `C[C@@H]1OCC2(CCN(c3cnc4c(N5CCc6ccc(-c7cnn(C)c7)cc6C5)n[nH]c4n3)CC2)[C@@H]1N` [Compound 337] registered a 50% inhibitory concentration (IC50) of under 1000 nM.

With `C[C@@H]1OCC2(CCN(c3cnc4c(N5CCc6cc(-c7cnn(C)c7)ccc6C5)n[nH]c4n3)CC2)[C@@H]1N` [Compound 338], the 50% inhibitory concentration (IC50) was under 1000 nM.

As to `N[C@@H]1CCC12CCN(c1cnc3c(N4CCCc5ncccc54)n[nH]c3n1)CC2` [Compound 339, (1R)-7-[3-(1,2,3,4-tetrahydro-1,5-naphthyridin-1-yl)-1H-pyrazolo[3,4-b]pyrazin-6-yl]-7-azaspiro[3.5]nonan-1-amine], the IC50 was under 1000 nM.

Take `N[C@H]1CCC12CCN(c1cnc3c(N4CCCc5ncccc54)n[nH]c3n1)CC2` [Compound 340, (1S)-7-[3-(1,2,3,4-tetrahydro-1,5-naphthyridin-1-yl)-1H-pyrazolo[3,4-b]pyrazin-6-yl]-7-azaspiro[3.5]nonan-1-amine]: the 50% inhibitory concentration (IC50) was under 1000 nM.

`C[C@@H]1OCC2(CCN(c3cnc4c(N5CCS(=O)(=O)c6ccccc65)n[nH]c4n3)CC2)[C@@H]1N` [Compound 341] yielded an IC50 of under 1000 nM.

Compound `CNC(=O)N1CCN(c2n[nH]c3nc(N4CCC5(CC4)CO[C@@H](C)[C@H]5N)cnc23)c2ccccc21` [Compound 342] came in with an IC50 of under 1000 nM.

Consider `C[C@@H]1OCC2(CCN(c3cnc4c(N5CCCc6c(NS(C)(=O)=O)cccc65)n[nH]c4n3)CC2)[C@@H]1N` [Compound 343, N-(1-{6-[(3S,4S)-4-amino-3-methyl-2-oxa-8-azaspiro[4.5]decan-8-yl]-1H-pyrazolo[3,4-b]pyrazin-3-yl}-1,2,3,4-tetrahydroquinolin-5-yl)methanesulfonamide], for which the IC50 was under 1000 nM.

The compound `C[C@@H]1OCC2(CCN(c3cnc4c(N5CCCc6c5cccc6N(S(C)(=O)=O)S(C)(=O)=O)n[nH]c4n3)CC2)[C@@H]1N` [Compound 344, N-(1-{6-[(3S,4S)-4-amino-3-methyl-2-oxa-8-azaspiro[4.5]decan-8-yl]-1H-pyrazolo[3,4-b]pyrazin-3-yl}-1,2,3,4-tetrahydroquinolin-5-yl)-N-methanesulfonylmethanesulfonamide] showed an IC50 of under 1000 nM.

Take `Cc1ccc2c(c1S(C)(=O)=O)CCCN2c1n[nH]c2nc(N3CCC4(CC3)CO[C@@H](C)[C@H]4N)cnc12` [Compound 345]: the IC50 is under 1000 nM.

For `C[C@@H]1CCN(c2n[nH]c3nc(N4CCC5(CC4)CO[C@@H](C)[C@H]5N)cnc23)c2ccc(C(=O)N(C)C)nc21` [Compound 347, (8R)-5-{6-[(3S,4S)-4-amino-3-methyl-2-oxa-8-azaspiro[4.5]decan-8-yl]-1H-pyrazolo[3,4-b]pyrazin-3-yl}-N,N,8-trimethyl-5,6,7,8-tetrahydro-1,5-naphthyridine-2-carboxamide], the IC50 was under 1000 nM.

`C[C@@H]1OCC2(CCN(c3cnc4c(N5CCCc6nc(-c7cccnn7)ccc65)n[nH]c4n3)CC2)[C@@H]1N` [Compound 348] had an IC50 of under 1000 nM.

In turn, `C[C@@H]1OCC2(CCN(c3cnc4c(N5CCCc6nc(-c7cnccn7)ccc65)n[nH]c4n3)CC2)[C@@H]1N` [Compound 350] showed an IC50 of under 1000 nM.

`C[C@@H]1OCC2(CCN(c3cnc4c(N5CCCc6nc(-c7cnn(CCO)c7)ccc65)n[nH]c4n3)CC2)[C@@H]1N` [Compound 351, 2-[4-(5-{6-[(3S,4S)-4-amino-3-methyl-2-oxa-8-azaspiro[4.5]decan-8-yl]-1H-pyrazolo[3,4-b]pyrazin-3-yl}-5,6,7,8-tetrahydro-1,5-naphthyridin-2-yl)-1H-pyrazol-1-yl]ethan-1-ol] returned an IC50 of under 1000 nM.

`C[C@@H]1OCC2(CCN(c3cnc4c(N5CCCc6nc(CC#N)ccc65)n[nH]c4n3)CC2)[C@@H]1N` [Compound 352] showed an IC50 of under 1000 nM.

For `Cc1nnc(-c2ccc3c(c2)[C@@H](C)CCN3c2n[nH]c3nc(N4CCC5(CC4)CO[C@@H](C)[C@H]5N)cnc23)o1` [Compound 353], the IC50 was under 1000 nM.

The compound `Cc1ccc2c(c1)CCCN2c1n[nH]c2nc(N3CCC4(CC3)CO[C@@H](C)[C@H]4N)cnc12` [Compound 354] gave an IC50 of under 1000 nM.

Consider `C[C@@H]1OCC2(CCN(c3cnc4c(N5CCCc6ccccc65)n[nH]c4n3)CC2)[C@@H]1N` [Compound 355], for which the IC50 is under 1000 nM.

In turn, `C[C@@H]1OCC2(CCN(c3cnc4c(N5CCCc6nc(-c7cncs7)ccc65)n[nH]c4n3)CC2)[C@@H]1N` [Compound 356] came in with an IC50 of under 1000 nM.

`CC1c2ccccc2CCN1c1n[nH]c2nc(N3CCC4(CC3)CO[C@@H](C)[C@H]4N)cnc12` (stereo partly shown) [Compound 357] had a 50% inhibitory concentration (IC50) of under 1000 nM.

In turn, `C[C@@H]1OCC2(CCN(c3cnc4c(N5CCc6cccc(-c7cnn(C)c7)c6C5)n[nH]c4n3)CC2)[C@@H]1N` [Compound 358] registered an IC50 of at least 10000 nM.

The compound `C[C@@H]1OCC2(CCN(c3cnc4c(N5CCc6cccc(C#N)c6C5)n[nH]c4n3)CC2)[C@@H]1N` [Compound 359] gave an IC50 of 1000 to 10000 nM.

For the compound `CCC(=O)N1CCN(c2n[nH]c3nc(N4CCC5(CC4)CO[C@@H](C)[C@H]5N)cnc23)c2ccccc21` [Compound 360], the IC50 is under 1000 nM.

For the compound `Cc1csc(-c2ccc3c(n2)CCCN3c2n[nH]c3nc(N4CCC5(CC4)CO[C@@H](C)[C@H]5N)cnc23)n1` [Compound 361], the IC50 is under 1000 nM.
